Laboratory results taken from paper PMC7917639, “Nopol-Based Quinoline Derivatives as Antiplasmodial Agents” (Molecules, 2021).
Where “and” joins values, the source holds several entries; their conditions need not be identical. Equal entries are not always repeated. Where two headings read alike, the source gives them in different places.

How the values were obtained:
[1] = system: P. falciparum 3D7 (Pf3D7, chloroquine-sensitive strain); experiment: Pf3D7 asexual blood-stage growth inhibition, SYBR Green fluorescence assay; type: cell-based, Plasmodium falciparum; details: for Pf3D7 selectivity index (SI, CC50/EC50): Hep G2 CC50 / Pf3D7 EC50; for EC50: read-out: Pf3D7 EC50; for Antiplasmodial activity against Pf3D7 (in words): chloroquine-sensitive strain
Description: a. Pf3D7: 100 μL of complete media (Sigma-Aldrich’s RPMI 1640, 25 mM HEPES, 10 μg/mL gentamicin, 0.5 mM hypoxanthine supplemented with NaHCO3 and 0.5% Albumax II, 37 °C) containing compounds (50–0.3 µM) or 100 µM chloroquine were added to 96 well plates in triplicates. This was followed by the addition of 100 µL erythrocytic asexual culture of Pf3D7 (10% hematocrit and 0.25% ring stage parasitemia), maintained at atmospheric conditions of 1% oxygen, 5% carbon dioxide, and 94% nitrogen, and allowed to grow for 96 h at 37 °C. The cultures were then frozen at −80 °C overnight and thawed at 37 °C for 4 h. Aliquots (100 µL) from each well were transferred to black 96-well plates, 100 μL of 2× SYBR Green (Molecular Probes) in lysis buffer (20 mM Tris at pH 7.5, 5 mM EDTA, 0.008% saponin, 0.08% Triton X-100) was added to each well and mixed thoroughly with a pipette. The plates were incubated in the dark at room temperature for 1 h and read at λex 485 nm and λem 530 nm. Infected and untreated red blood cells (iRBC) cultures served as negative control. Percent inhibitory activities were calculated using (=100 − 100*((Sample − 100 µM CQ)/(iRBC − 100 µM CQ)) and used to plot sigmoidal inhibition curves to obtain the EC50 values.

[2] = system: Human hepatocarcinoma cell line (Hep G2); experiment: Cytotoxicity assay (MTT); type: cell-based; details: 72 h
Description: (§1) Human hepatocarcinoma cell line (Hep G2, ATCC CRL-11997TM) was used for cytotoxicity studies as previously described. The cells were grown in complete medium (DMEM:F12 containing L-glutamine and sodium bicarbonate, 10% FBS, 1% penicillin/streptomycin, Thermo Fisher Scientific) at 37 °C in 5% CO2 environment. Cells (198 µL, 5 × 10^5/mL) were seeded into 96-well plates and incubated overnight. The cells were treated with the compounds (160–1.25 µM, in triplicates) or DMSO (1%) for 72 h. The cell medium was removed and replaced with DMEM:F12 medium containing MTT (0.5 mg/mL) was added to the cells and incubated for 1.5 h. The MTT-containing medium was gently removed and replaced with DMSO (200 µL/well). The contents of each well were then repeatedly mixed with a multichannel pipette and incubated for 10 min. The plates were read at 570 nm. DMSO-treated (1%) cells were used as negative assay control and SDS (10%) was used as assay positive control. Percent cell viabilities were expressed as a percentage of the mean viability of DMSO-treated (1%) cells.

PfK1 = PfK1 erythrocytic stage growth inhibition, [3H]-hypoxanthine incorporation assay; type: cell-based, Plasmodium falciparum; details: for EC50: erythrocytic stages, 48 h + 24 h with 3H-hypoxanthine; for Antiplasmodial activity against K1 strain (in words): multidrug-resistant strain; for PfK1 selectivity index (SI, CC50/EC50): Hep G2 CC50 / PfK1 EC50
Description: b. PfNH54 and PfK1: The growth inhibitory activities of the compounds against erythrocytic stages of PfNH54 and PfK1 were determined using the [^3H]-hypoxanthine incorporation assay as previously reported. Parasites in RPMI 1640 medium containing […] (without hypoxanthine) were treated with compounds (50–0.3 µM) in 96 well plates for 48 h at 37 °C in 92% N2, 5% CO2, and 3% O2. ^3H-hypoxanthine (0.5 μCi) was added to each well, incubated for an additional 24 h, harvested onto glass-fiber filters, and washed with distilled water. Radioactivity at each compound concentration was counted using a Betaplate™ liquid scintillation counter (Wallac, Zurich), and the results were recorded as counts per minute (CPM) per well. The CPMs were expressed as a percentage of the CPMs from the untreated controls and used to estimate the EC50 from sigmoidal inhibition curves. Artemisinin and CQ were used as positive controls.

PfNF54 = PfNF54 erythrocytic stage growth inhibition, [3H]-hypoxanthine incorporation assay; type: cell-based, Plasmodium falciparum; details: for EC50: erythrocytic stages, 48 h + 24 h with 3H-hypoxanthine; for PfNF54 selectivity index (SI, CC50/EC50): Hep G2 CC50 / PfNF54 EC50
Description: b. PfNH54 and PfK1: The growth inhibitory activities of the compounds against erythrocytic stages of PfNH54 and PfK1 were determined using the [^3H]-hypoxanthine incorporation assay as previously reported. […] The CPMs were expressed as a percentage of the CPMs from the untreated controls and used to estimate the EC50 from sigmoidal inhibition curves. Artemisinin and CQ were used as positive controls.

Cytotoxicity assay (MTT) = type: cell-based, Human; details: human
Description: as §1

[3] = erythrocytic asexual culture, 96 h, SYBR Green
[4] = Plasmodium falciparum, 3D7, erythrocytic asexual culture, 96 h, SYBR Green
[5] = Plasmodium falciparum, 3D7, 96 h

Row | Compound | Pf3D7 selectivity index (SI, CC50/EC50) [1] | EC50 [1, 3] | CC50 [2] [µM] | EC50 (PfK1) | Antiplasmodial activity against K1 strain (in words) (PfK1) | EC50 (PfNF54) [µM] | other results
1 | COc1ccc(NC(=O)CC2=CCC3CC2C3(C)C)c2ncccc12 (single isomer, unassigned) [Compound 1] | 13.4 | 5.25 ± 0.7 µM | 70.8 ± 1.26 |  |  |  | 
2 | COc1ccc(NC(=O)CC2=CCC3CC2C3(C)C)c2ncccc12 (single isomer, unassigned) [Compound 2] | > 58.8 | 2.72 ± 0.28 µM | > 160 |  |  |  | 
3 | CC1(C)C2CC=C(CC(=O)Nc3cccc4cccnc34)C1C2 (single isomer, unassigned) [Compound 3, 2-(6,6-dimethylbicyclo[3.1.1]hept-2-en-2-yl)-N-(quinolin-8-yl) Acetamide] | > 73.1 | 2.19 ± 0.15 µM | > 160 | > 50 µM | inactive | > 50 | Antiplasmodial activity against NF54 strain (in words) (PfNF54): inactive
4 | CC1(C)C2CC=C(CC(=O)Nc3cccc4cccnc34)C1C2 (single isomer, unassigned) [Compound 4, 2-(6,6-dimethylbicyclo[3.1.1]hept-2-en-2-yl)-N-(quinolin-8-yl) Acetamide] | > 62.3 | 2.57 ± 0.02 µM | > 160 | > 50 µM | inactive | > 50 | Antiplasmodial activity against NF54 strain (in words) (PfNF54): inactive
5 | Cc1cc(C(=O)OCCC2=CC[C@@H]3C[C@H]2C3(C)C)c2ccc(Cl)cc2n1 (stereo in doubt) [Compound 13, 2-((1S,5R)-6,6-dimethylbicyclo[3.1.1]hept-2-en-2-yl)ethyl-7-chloro-2-methylquinoline-4-carboxylate] | > 6.9 |  |  |  |  |  | EC50 [1, 4]: 23 ± 2 µM; Antiplasmodial activity against Pf3D7 (in words) [1]: very weak antiplasmodial activity; CC50 at 72 h (Cytotoxicity assay (MTT); read-out: Hep G2 CC50): > 160 µM
6 | CC1(C)[C@@H]2CC=C(CCOC(=O)c3cc4ccccc4nc3Cl)[C@H]1C2 (stereo in doubt) [Compound 14, 2-((1S,5R)-6,6-dimethylbicyclo[3.1.1]hept-2-en-2-yl)ethyl-2-chloroquinoline-3-carboxylate] | 13.6 |  |  |  | inactive |  | EC50 [1, 4]: 4.04 ± 0.03 µM; Antiplasmodial activity against Pf3D7 (in words) [1]: moderately active; CC50 at 72 h (Cytotoxicity assay (MTT); read-out: Hep G2 CC50): 55.2 ± 1.2 µM; Antiplasmodial activity against NF54 strain (in words) (PfNF54): inactive
7 | Cc1cc(C(=O)OCC[C@@]23O[C@@H]2C[C@@H]2C[C@H]3C2(C)C)c2ccc(Cl)cc2n1 (stereo in doubt) [Compound 16, 2-((1S,2S,4R,6S)-7,7-dimethyl-3-oxatricyclo[4.1.1.0 2,4]octan-2-yl)ethyl-7-chloro-2-methylquinoline-4-carboxylate] | 1.9 |  |  |  |  |  | EC50 [1, 4]: 40.4 ± 1.58 µM; Antiplasmodial activity against Pf3D7 (in words) [1]: weakly active but nonselective; CC50 at 72 h (Cytotoxicity assay (MTT); read-out: Hep G2 CC50): 76.8 ± 6.5 µM
8 | C[C@@H]1CC[C@H]2[C@@H](C)C(=O)O[C@@H]3O[C@@]4(C)CC[C@@H]1[C@]32OO4 [Artemisinin, reference compound] |  |  |  |  |  |  | EC50 (PfK1; Plasmodium falciparum, 72 h): 0.011 ± 0.005 µM; EC50 (PfNF54; Plasmodium falciparum, 72 h): 0.017 ± 0.005 µM
9 | CCN(CC)CCCC(C)Nc1ccnc2cc(Cl)ccc12 (stereo not shown) [Chloroquine, reference compound] |  |  |  |  |  |  | EC50 [1, 5]: 0.004 ± 0.001 µM
10 | CC1(C)[C@@H]2CC=C(CC(=O)Nc3ccnc4ccccc34)[C@H]1C2 [Compound 5, 2-((1S,5R)-6,6-dimethylbicyclo[3.1.1]hept-2-en-2-yl)-N-(quinolin-4-yl) Acetamide] | 0.2 | 26.4 ± 1.7 µM | 3.98 ± 0.7 | 13.9 ± 2.1 µM | weakly active | 23.4 ± 0.14 | PfK1 selectivity index (SI, CC50/EC50) (PfK1): 0.3; Antiplasmodial activity against NF54 strain (in words) (PfNF54): weakly active; PfNF54 selectivity index (SI, CC50/EC50) (PfNF54): 0.2
11 | CC1(C)[C@@H]2CC=C(CC(=O)Nc3ccnc4cc(Cl)ccc34)[C@H]1C2 [Compound 6, N-(7-chloroquinolin-4-yl)-2-((1S,5R)-6,6-dimethylbicyclo[3.1.1]hept-2-en-2-yl) Acetamide] | 0.8 | 17.1 ± 1.8 µM | 14.3 ± 1.2 | 7.84 ± 0.57 µM | weakly active | 21.4 ± 1.7 | PfK1 selectivity index (SI, CC50/EC50) (PfK1): 1.8; Antiplasmodial activity against NF54 strain (in words) (PfNF54): weakly active; PfNF54 selectivity index (SI, CC50/EC50) (PfNF54): 0.7
12 | CC1(C)[C@@H]2CC=C(CC(=O)Oc3ccnc4ccccc34)[C@H]1C2 [Compound 7, quinolin-4-yl-2-((1S,5R)-6,6-dimethylbicyclo[3.1.1]hept-2-en-2-yl) Acetate] |  | > 50 µM | > 160 | > 28 µM |  | > 50 | 
13 | CC1(C)[C@@H]2CC=C(CC(=O)Oc3ccnc4cc(Cl)ccc34)[C@H]1C2 [Compound 8, 7-chloroquinolin-4-yl-2-((1S,5R)-6,6-dimethylbicyclo[3.1.1]hept-2-en-2-yl) Acetate] |  | > 50 µM | > 160 | 0.16 µM and 0.164 µM | sub-micromolar EC50 | 23.3 | PfK1 selectivity index (SI, CC50/EC50) (PfK1): > 976; PfNF54 selectivity index (SI, CC50/EC50) (PfNF54): > 6.8
14 | Cc1cc(OC(=O)CC2=CC[C@@H]3C[C@H]2C3(C)C)c2ccc(Cl)c(C)c2n1 [Compound 9, 7-chloro-2,8-dimethylquinolin-4-yl-2-((1S,5R)-6,6-dimethylbicyclo[3.1.1]hept-2-en-2-yl) Acetate] | > 26 | 6.2 µM and 6.15 µM | > 160 |  |  |  | 
15 | CC1(C)[C@@H]2CC=C(CC(=O)Oc3cc(C(F)(F)F)nc4ccc(F)cc34)[C@H]1C2 [Compound 10, 6-fluoro-2-(trifluoromethyl)quinolin-4-yl-2-((1S,5R)-6,6-dimethylbicyclo[3.1.1]hept-2-en-2yl) Acetate] | 2.3 | 21.4 ± 5.06 µM | 48.5 ± 1.12 |  |  |  | 
16 | Cc1c(Cl)ccc2c(OC(=O)CC3=CC[C@@H]4C[C@H]3C4(C)C)ccnc12 [Compound 11, 7-chloro-8-methylquinolin-4-yl-2-((1S,5R)-6,6-dimethylbicyclo[3.1.1]hept-2-en-2-yl) Acetate] | >9.1 | 17.6 ± 5.27 µM | > 160 |  |  |  | 
17 | CC1(C)[C@@H]2CC=C(CC(=O)Oc3cc(C(F)(F)F)nc4c(C(F)(F)F)cccc34)[C@H]1C2 [Compound 12, 2,8-bis(trifluoromethyl)quinolin-4-yl-2-((1S,5R)-6,6-dimethylbicyclo[3.1.1]hept-2-en-2-yl) Acetate] | 0.7 | 29.6 ± 0.93 µM | 21.8 ± 1.1 |  |  |  | 
18 | CC1(C)[C@H]2CC=C(CCOC(=O)c3cc4ccccc4[nH]3)[C@@H]1C2 [Compound 15, 2-((1R,5S)-6,6-dimethylbicyclo[3.1.1]hept-2-en-2-yl)ethyl-1H-indole-2-carboxylate] | > 8.5 |  |  |  |  |  | EC50 [1, 5]: 4.71 ± 0.07 µM; Antiplasmodial activity against Pf3D7 (in words) [1]: moderately active; CC50 at 72 h (Cytotoxicity assay (MTT); Hep G2 cells (human hepatocarcinoma cell line)): > 40 µM
19 | OC(c1cc(C(F)(F)F)nc2c(C(F)(F)F)cccc12)C1CCCCN1 (stereo not shown) [Mefloquine, reference compound] |  |  |  |  |  |  | EC50 [1, 4]: 2.33 ± 2.29 µM; EC50 (PfK1; Plasmodium falciparum, 72 h): 0.117 ± 0.015 µM; EC50 (PfNF54; Plasmodium falciparum, 72 h): 0.003 ± 0.002 µM
